# Publication PMC9718554, “Discovery of a fragment hit compound targeting D-Ala:D-Ala ligase of bacterial peptidoglycan biosynthesis” (Journal of Enzyme Inhibition and Medicinal Chemistry, 2022)
# Target: T1, E. coli DdlB enzyme (D-alanine:D-alanine ligase) (Escherichia coli, UniProt P07862)
# T1 construct: made in house; host or cells: E. coli
# Experiment: biochemical
# Conditions: fragment library screening; tested concentration 1.9 mM; read-out: DdlB RA
row,Structure (SMILES),remaining activity at 1900 µM
1,CCc1nc(NCc2ccncc2)ncc1C(=O)O [Compound S272-1779],93%

# Same assay, conditions: residual activity of DdlB, fragment library screening, tested concentration 2.6 mM; read-out: DdlB RA
row,Structure (SMILES),remaining activity at 2600 µM
1,NCCc1noc(C2CC2)n1 [Compound S399-0482],95%

# Same assay, conditions: residual activity of DdlB, fragment library screening, tested concentration 2.9 mM; read-out: DdlB RA
row,Structure (SMILES),remaining activity at 2900 µM
1,COCc1cn(C2CNC2)nn1 [Compound S727-0003],7.54%

# Same assay, conditions: residual activity of DdlB, fragment library screening, tested concentration 3.0 mM; read-out: DdlB RA
row,Structure (SMILES),remaining activity at 3000 µM
1,CN(CC1CCOC1)C(=O)C1CC1 (stereo not drawn) [Compound S213-1842],91%

# Same assay, conditions: residual activity of DdlB, fragment library screening, tested concentration 3.2 mM; read-out: DdlB RA
row,Structure (SMILES),remaining activity at 3200 µM
1,C#CC(=O)NC(C)c1ccc(C)cc1 (stereo not drawn) [Compound T001-1588],93%

# Same assay, conditions: residual activity of DdlB, fragment library screening, tested concentration 3.6 mM; read-out: DdlB RA
row,Structure (SMILES),remaining activity at 3600 µM
1,O=C1CCn2ncnc2N1 [Compound Y021-0743],98%

# Same assay, conditions: residual activity; tested concentration 1.7 mM; read-out: DdlB RA
row,Structure (SMILES),remaining activity at 1700 µM
1,Cc1ccc(CNC(=O)C2Cn3cccc3C(=O)N2C)o1 (stereo not drawn) [Compound S531-0187],92%
2,CCc1ccc(C(=O)N2CCC(C3CCNC3)CC2)cc1 (stereo not drawn) [Compound S632-2763],69%
3,CCc1nnc(C2CCCN(C(=O)C3CCCCC3)C2)[nH]1 (stereo not drawn) [Compound T629-1509],71%
4,O=C(Nc1ccc(Cl)cc1)Nc1ccccc1C(=O)O [Compound Y020-0051],119%

# Same assay, conditions: residual activity; tested concentration 1.8 mM; read-out: DdlB RA
row,Structure (SMILES),remaining activity at 1800 µM
1,O=C(c1n[nH]c2ccccc12)N1C[C@H]2CCC[C@@H](O)[C@H]2C1 [Compound S890-0272],95%
2,O=S(=O)(c1cccnc1)N1CCC2(CCC2O)CC1 (stereo not drawn) [Compound S971-1046],89%
3,CCCNC(=O)N1CCC(F)(C(=O)NC2CC2)CC1 [Compound T502-0828],97%
4,O=C(C1CCC1)N1CCC(F)(C(=O)N2CCCC2)CC1 [Compound T502-1244],97%
5,Cc1ccccc1C(=O)N1CCCN(C)c2ccccc21 [Compound T599-3543],72%

# Same assay, conditions: residual activity; tested concentration 1.9 mM; read-out: DdlB RA
row,Structure (SMILES),remaining activity at 1900 µM
1,COc1cccc(CNC(=O)C2CCCCC(=O)N2C)c1 (stereo not drawn) [Compound S513-0092],97%
2,O=C1CS(=O)(=O)C2(CCNCC2)N1c1ccccc1 [Compound T140-0972],93%
3,Cc1nnc(C2CCN(C(=O)c3ccco3)CC2)[nH]1 [Compound T630-1922],58%

# Same assay, conditions: residual activity; tested concentration 2.0 mM; read-out: DdlB RA
row,Structure (SMILES),remaining activity at 2000 µM
1,CCCNC(=O)N1CCC2(CCC(=O)N(C)CC2)CC1 [Compound S509-1557],98%
2,CC1CN(S(=O)(=O)c2ccc(F)cc2)CC(C)O1 (stereo not drawn) [Compound Y030-1235],93%

# Same assay, conditions: residual activity; tested concentration 2.1 mM; read-out: DdlB RA
row,Structure (SMILES),remaining activity at 2100 µM
1,Cc1ccc(F)cc1S(=O)(=O)N(C)CC1CCOC1 (stereo not drawn) [Compound S213-1645],102%
2,Cc1cc(C)cc(NC(=O)N(C)CC2CCOC2)c1 (stereo not drawn) [Compound S213-1693],96%
3,CC(C(=O)NCc1cc(F)cc(F)c1)C1CCOCC1 (stereo not drawn) [Compound S424-0231],92%
4,CCC(=O)N1CCC(c2nc(C3CCOCC3)no2)C1 (stereo not drawn) [Compound S428-0464],95%
5,CCC1(C(=O)NC2CCCCCC2)CCCCC(=O)N1 (stereo not drawn) [Compound S515-0307],99%
6,O=C1CCC2(CNC(=O)C3CCOCC3)CCCC=C2N1 (stereo not drawn) [Compound S570-0163],94%
7,Cc1noc(C)c1C(=O)NCC1Cn2cccc2CN1C (stereo not drawn) [Compound S590-0019],45%
8,Cc1ncoc1C(=O)N1CCCC(n2c(C)cnc2C)C1 (stereo not drawn) [Compound S692-1464],96%
9,Cc1noc(C)c1S(=O)(=O)N1CC(n2ccnc2)C1 [Compound S695-2555],97%
10,O=C1CCC2(CCN(S(=O)(=O)c3ccccc3)C2)N1 (stereo not drawn) [Compound S914-0001],101%
11,CCS(=O)(=O)N1CCc2[nH]c(-c3ccccc3)nc2C1 [Compound T147-0013],81%
12,CCn1cnnc1CC1CCCN(C(=O)c2ccco2)C1 (stereo not drawn) [Compound T501-0329],69%
13,CCS(=O)(=O)N1CCC(F)(C(=O)N2CCCC2)CC1 [Compound T502-1464],83%
14,CC(O)C1CCN(Cc2ccc(Br)o2)CC1 (stereo not drawn) [Compound T786-0030],94%
15,CC1CCN(C(=O)C2N(C(C)C)C(=O)C23CCCC3)CC1 (stereo not drawn) [Compound T964-0245],95%
16,O=C1C(O)C2(CCCCC2)N1C1CCNCC1 (stereo not drawn) [Compound T965-0058],90%

# Same assay, conditions: residual activity; tested concentration 2.2 mM; read-out: DdlB RA
row,Structure (SMILES),remaining activity at 2200 µM
1,NC(=O)CN1C(=O)C2(CCCCC2)C1c1ccccc1 (stereo not drawn) [Compound S642-0104],96%
2,O=C(c1ccoc1)N1C[C@@H](CO)[C@H](c2ccncc2)C1 [Compound S824-2534],95%
3,Cc1cccnc1C(=O)N1CCC2(CC1)CCC2(C)O (stereo not drawn) [Compound S971-1225],97%
4,CCNC(=O)N1CCC(F)(C(=O)N2CCCC2)CC1 [Compound T502-1430],89%

# Same assay, conditions: residual activity; tested concentration 2.3 mM; read-out: DdlB RA
row,Structure (SMILES),remaining activity at 2300 µM
1,CC(C)C(=O)N1CC(n2cc(C(=O)N(C)C)nn2)C1 [Compound S724-0111],97%
2,CC1CC(C)(C)Nc2c(C(=O)O)cccc21 (stereo not drawn) [Compound Y021-0767],97%
3,CC1=CC(C)(C)Nc2c(C(=O)O)cccc21 [Compound Y021-0768],105%

# Same assay, conditions: tested concentration 1.7 mM; read-out: DdlB RA
row,Structure (SMILES),remaining activity at 1700 µM
1,Cc1nc(N2CCC(C(=O)O)CC2)cc(C(F)(F)F)n1 [Compound S553-0322],105%
2,O=C(c1ccccc1)N1CCC(c2nnc(C3CC3)[nH]2)CC1 [Compound T630-2594],91%
3,Cc1cccc(C2SC(C)C(=O)N2CC(=O)N(C)C)c1 (stereo not drawn) [Compound V017-7801],98%
4,CNC(=O)CCN1C(=O)CSC1c1ccccc1Cl (stereo not drawn) [Compound V026-8598],109%

# Same assay, conditions: tested concentration 1.9 mM; read-out: DdlB RA
row,Structure (SMILES),remaining activity at 1900 µM
1,COCC1CN(C(C)=O)CC12CCNCC2 (stereo not drawn) [Compound S635-3083],93%
2,CCn1nccc1C(=O)N1CC(n2ccnc2C)C1 [Compound S695-2086],95%
3,CNCCN1C(=O)C(C)SC1c1ccccc1C (stereo not drawn) [Compound V007-8918],72%
4,CNC(=O)CN1C(=O)CSC1c1ccc(F)cc1 (stereo not drawn) [Compound V022-4411],92%

# Same assay, conditions: tested concentration 2.0 mM; read-out: DdlB RA
row,Structure (SMILES),remaining activity at 2000 µM
1,CCC(=O)N1CCC(CC(=O)N2CCOCC2)C1 (stereo not drawn) [Compound S421-0882],70%
2,CCOc1ccc2c(n1)CCN(C(=O)C1CC1)C2 [Compound S422-0032],97%
3,CC(C)C(=O)N1CCC2(CCNC(=O)CC2)CC1 [Compound S509-1270],93%
4,CCn1cnnc1-c1nn(C)c2c1CNCC2 [Compound S565-0571],89%
5,CCS(=O)(=O)N1CCC2(CCC2OC)CC1 (stereo not drawn) [Compound S664-0247],92%

# Same assay, conditions: tested concentration 2.1 mM; read-out: DdlB RA
row,Structure (SMILES),remaining activity at 2100 µM
1,Cc1c(C(=O)O)nnn1-c1ccc2c(c1)CCC2 [Compound T640-0079],92%

# Same assay, conditions: tested concentration 2.2 mM; read-out: DdlB RA
row,Structure (SMILES),remaining activity at 2200 µM
1,CN1CCC2(CC1)CNCc1ccccc1O2 [Compound S530-0066],94%
2,CC(=O)NCC1CNCC12CCCCC2 (stereo not drawn) [Compound S855-0002],85%

# Same assay, conditions: tested concentration 2.3 mM; read-out: DdlB RA
row,Structure (SMILES),remaining activity at 2300 µM
1,CCCn1c(C)cnc1C1CCNC1 (stereo not drawn) [Compound T158-0004],86%
2,Cc1ccc(F)c(-n2cc(C(=O)O)nn2)c1 [Compound T640-0432],100%
3,CC(O)C1CCN(Cc2ccncc2)CC1 (stereo not drawn) [Compound T786-0016],65%
4,Cc1cc(O)n(C2CCS(=O)(=O)C2)n1 (stereo not drawn) [Compound Y020-9160],99%

# Same assay, conditions: tested concentration 2.4 mM; read-out: DdlB RA
row,Structure (SMILES),remaining activity at 2400 µM
1,Cc1ccc(C)c(C(=O)N(C)CC2CCOC2)c1 (stereo not drawn) [Compound S213-1736],99%
2,C#CC(=O)NC(C)c1c(C)nn(C)c1C (stereo not drawn) [Compound T001-1381],87%
3,CCNC(=O)N1CCCN(C)c2ccccc21 [Compound T599-3176],96%
4,CC(C)N1C(=O)C2(CCCC2)C1C(=O)O (stereo not drawn) [Compound T964-0325],92%
5,CC(=O)c1cc2c(cc1C)NC(C)(C)CC2C (stereo not drawn) [Compound Y021-0953],97%

# Same assay, conditions: tested concentration 2.5 mM; read-out: DdlB RA
row,Structure (SMILES),remaining activity at 2500 µM
1,CN(CC1CCOC1)C(=O)NC1CCCCC1 (stereo not drawn) [Compound S213-1594],91%
2,CCc1nc(N2CCOCC2)ncc1C(=O)O [Compound S272-0074],91%
3,CC1(O)CCC12CCN(C(=O)CC1CC1)CC2 (stereo not drawn) [Compound S971-1224],75%

# Same assay, conditions: tested concentration 2.6 mM; read-out: DdlB RA
row,Structure (SMILES),remaining activity at 2600 µM
1,Cc1cnc(C)n1CCNC(=O)C1CC=CC1 [Compound S751-1890],98%

# Same assay, conditions: tested concentration 2.7 mM; read-out: DdlB RA
row,Structure (SMILES),remaining activity at 2700 µM
1,CN1CCCCC(CC(=O)O)C1=O (stereo not drawn) [Compound S581-1125],95%
2,CC1=CC(C)(C)N(C)c2cc(O)ccc21 [Compound Y021-0895],88%

# Same assay, conditions: tested concentration 2.8 mM; read-out: DdlB RA
row,Structure (SMILES),remaining activity at 2800 µM
1,O=C1NC(C(=O)O)Cn2cccc21 (stereo not drawn) [Compound S531-0139],90%
2,C#CC(=O)NCc1ccc(F)cc1F [Compound T001-0851],93%
3,CC(C)NS(=O)(=O)c1ccc(F)cc1 [Compound Y030-0983],94%

# Same assay, conditions: tested concentration 2.9 mM; read-out: DdlB RA
row,Structure (SMILES),remaining activity at 2900 µM
1,CC(C)(C(=O)O)C1CCOCC1 [Compound S424-0502],98%
2,CC1(C(=O)O)CCCCC(=O)N1 (stereo not drawn) [Compound S515-0278],93%
3,CC#CC(=O)NCc1cc(F)ccc1F [Compound T001-0919],89%
4,CC#CC(=O)N(C)CCc1cn[nH]c1 [Compound T001-1282],86%
